# Measured values reported in publication PMC3375280 (PLoS ONE, 2012).
# Substitutions are numbered along the chain they refer to.
# Key:
# [1] = molecular target: T1, AT1 F110A mutant receptor (Rattus norvegicus, UniProt P25095, F110A); experiment: competition binding, F110A mutant; conditions: for Kd ratio relative to WT (in parentheses): F110A / WT; for Kd: F110A, COS1 membranes, read-out: Binding affinity (Kd)
# T1 construct: expressed in transfected cells; host or cells: COS1
# T1 sequence (P25095 1-359 F110A): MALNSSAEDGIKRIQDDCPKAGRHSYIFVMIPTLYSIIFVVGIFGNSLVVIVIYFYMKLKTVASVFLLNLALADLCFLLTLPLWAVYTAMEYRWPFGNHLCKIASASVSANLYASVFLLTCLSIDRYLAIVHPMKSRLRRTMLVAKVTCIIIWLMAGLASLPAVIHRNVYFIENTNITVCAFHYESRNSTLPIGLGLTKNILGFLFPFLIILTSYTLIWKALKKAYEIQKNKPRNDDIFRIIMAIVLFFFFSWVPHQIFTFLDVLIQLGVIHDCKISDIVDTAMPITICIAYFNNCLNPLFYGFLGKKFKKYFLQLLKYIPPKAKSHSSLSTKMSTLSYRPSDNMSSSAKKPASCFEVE
# Method: (§1) The Kd and Bmax values of receptor binding were determined by ^125I-[Sar^1, Ile^8] […] Membranes expressing the WT or mutant AT1 receptors were incubated with 100 pM ^125I-[Sar^1, Ile^8] […] The binding reaction was terminated by filtering the incubation mixture through Whatman GF/C glass filters, and the residues were extensively washed further with binding buffer. The bound ligand fraction was determined from the counts per minute (cpm) remaining on the membrane. Binding kinetics values were determined as previously described.
# [2] = molecular target: T2, AT1 Y113F mutant receptor (Rattus norvegicus, UniProt P25095, Y113F); experiment: competition binding, Y113F mutant; conditions: for Kd ratio relative to WT (in parentheses): Y113F / WT; for Kd: Y113F, COS1 membranes, read-out: Binding affinity (Kd)
# T2 construct: expressed in transfected cells; host or cells: COS1
# T2 sequence (P25095 1-359 Y113F): T1 sequence (P25095 1-359 F110A) with A110F, Y113F
# Method: as §1
# [3] = molecular target: T3, AT1 S115A mutant receptor (Rattus norvegicus, UniProt P25095, S115A); experiment: competition binding, S115A mutant; conditions: for Kd ratio relative to WT (in parentheses): S115A / WT; for Kd: S115A, COS1 membranes, read-out: Binding affinity (Kd)
# T3 construct: expressed in transfected cells; host or cells: COS1
# T3 sequence (P25095 1-359 S115A): T1 sequence (P25095 1-359 F110A) with A110F, S115A
# Method: as §1
# [4] = molecular target: T4, AT1 C76A/C289A mutant receptor (Rattus norvegicus, UniProt P25095, C289A/C76A); experiment: competition binding, C76A/C289A mutant; conditions: for Kd ratio relative to WT (in parentheses): C76A/C289A / WT; for Kd: C76A/C289A, COS1 membranes, read-out: Binding affinity (Kd)
# T4 construct: expressed in transfected cells; host or cells: COS1
# T4 sequence (P25095 1-359 C76A/C289A): T1 sequence (P25095 1-359 F110A) with C76A, A110F, C289A
# Method: as §1
# [5] = molecular target: T5, AT1 C76A/A106C/C289A mutant receptor (Rattus norvegicus, UniProt P25095, A106C/C289A/C76A); experiment: competition binding, C76A/A106C/C289A mutant; conditions: for Kd ratio relative to WT (in parentheses): C76A/A106C/C289A / WT; for Kd: C76A/A106C/C289A, COS1 membranes, read-out: Binding affinity (Kd)
# T5 construct: expressed in transfected cells; host or cells: COS1
# T5 sequence (P25095 1-359 C76A/A106C/C289A): T1 sequence (P25095 1-359 F110A) with C76A, A106C, A110F, C289A
# Method: as §1
# [6] = molecular target: T6, AT1 C76A/S107C/C289A mutant receptor (Rattus norvegicus, UniProt P25095, C289A/C76A/S107C); experiment: competition binding, C76A/S107C/C289A mutant; conditions: for Kd ratio relative to WT (in parentheses): C76A/S107C/C289A / WT; for Kd: C76A/S107C/C289A, COS1 membranes, read-out: Binding affinity (Kd)
# T6 construct: expressed in transfected cells; host or cells: COS1
# T6 sequence (P25095 1-359 C76A/S107C/C289A): T1 sequence (P25095 1-359 F110A) with C76A, S107C, A110F, C289A
# Method: as §1
Kd ratio relative to WT (in parentheses) [1] [fold],Kd [1] [nM],Kd ratio relative to WT (in parentheses) [2] [fold],Kd ratio relative to WT (in parentheses) ([2]; listed as olmesartan) [fold],Kd [2] [nM],Kd ratio relative to WT (in parentheses) [3] [fold],Kd [3] [nM],Kd ratio relative to WT (in parentheses) [4] [fold],Kd [4] [nM],Kd ratio relative to WT (in parentheses) [5] [fold],Kd [5] [nM],Kd ratio relative to WT (in parentheses) [6] [fold],Kd [6] [nM],SMILES
1.1,2.6 ± 0.5,23,> 10,52 ± 7,1.3,3.1 ± 1.7,2.5,5.7 ± 1.6,3.9,8.9 ± 4,2.7,6.2 ± 3.2,"CCCc1nc(C(C)(C)O)c(C(=O)O)n1Cc1ccc(-c2ccccc2-c2nnn[nH]2)cc1 [Olmesartan, olmesartan, reference compound]"
1.5,1.2 ± 0.3,21,–,17 ± 3,1.6,1.3 ± 0.4,3.0,2.4 ± 0.5,5.1,4.1 ± 1,2.3,1.8 ± 0.4,CCCc1nc(C(C)(C)O)c(C(N)=O)n1Cc1ccc(-c2ccccc2-c2nnn[nH]2)cc1 [R239470]
1.4,68 ± 19,8.1,–,388 ± 54,3.1,150 ± 41,1.5,73 ± 20,4.0,193 ± 73,2.1,102 ± 19,CCCc1nc(C(C)(C)O)c(C(N)=O)n1Cc1ccc(-c2cc(Cc3ccc(O)cc3)ccc2-c2nnn[nH]2)cc1 [R794847]
